Data taken from patent EP4707277A1, “NOVEL HETEROCYCLIC AMINE DERIVATIVES AND PHARMACEUTICAL COMPOSITION COMPRISING SAME” (Daewoong Pharmaceutical Co., Ltd., priority 2023, dated 2024).
Where two headings read alike, the source gives them in different places.

Key:
[1] = molecular target: T1, ITK (Homo sapiens, UniProt Q08881); assay: Inhibitory activity against ITK, ADP-Glo Kinase system (Promega); assay type: biochemical
T1 construct: purchased Signalchem I13-11G-10
T1 sequence (Q08881 1-620): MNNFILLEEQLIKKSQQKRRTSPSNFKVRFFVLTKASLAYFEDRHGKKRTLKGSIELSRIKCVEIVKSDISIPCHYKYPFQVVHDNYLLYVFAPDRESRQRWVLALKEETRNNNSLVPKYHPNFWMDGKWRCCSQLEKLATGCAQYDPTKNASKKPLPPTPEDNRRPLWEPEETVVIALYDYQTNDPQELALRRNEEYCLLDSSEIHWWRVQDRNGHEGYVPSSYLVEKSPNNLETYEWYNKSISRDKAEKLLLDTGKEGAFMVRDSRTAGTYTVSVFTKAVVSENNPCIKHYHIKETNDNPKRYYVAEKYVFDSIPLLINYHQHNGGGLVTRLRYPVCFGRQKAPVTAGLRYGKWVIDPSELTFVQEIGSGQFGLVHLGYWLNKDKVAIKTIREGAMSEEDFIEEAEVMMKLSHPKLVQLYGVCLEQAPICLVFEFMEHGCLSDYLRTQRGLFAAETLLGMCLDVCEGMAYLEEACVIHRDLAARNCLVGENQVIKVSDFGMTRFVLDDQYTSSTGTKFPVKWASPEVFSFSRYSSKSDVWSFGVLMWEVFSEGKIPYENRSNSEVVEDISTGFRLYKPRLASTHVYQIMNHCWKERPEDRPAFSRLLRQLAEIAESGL
In short: (§1)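 IC50 values were fitted from kinase reactions run for 1 h at 30°C with either 1 mM ATP or ATP at Km (10 µM for BTK, 25 µM for ITK). Reactions used 0.2 µg/µl poly(Glu4,Tyr1), recombinant human enzyme (BTK 10 ng, ITK 4 ng per reaction) in Tris pH 7.5 Mn/Mg buffer with 1% DMSO. ADP formed was read by ADP-Glo luminescence.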

[2] = molecular target: T2, BTK (Homo sapiens, UniProt Q06187); assay: Inhibitory activity against BTK, ADP-Glo Kinase system (Promega); assay type: biochemical
T2 construct: purchased Signalchem B10-10H
In short: as §1

[3] = 1mM ATP, read-out: ITK IC50(nM) 1mM ATP
[4] = 1mM ATP, read-out: BTK IC50(nM) 1mM ATP
[5] = Km ATP (ITK: 25uM), read-out: ITK IC50(nM) Km ATP
[6] = Km ATP (BTK: 10 uM), read-out: BTK IC50(nM) Km ATP

T2 sequence (Q06187 whole entry): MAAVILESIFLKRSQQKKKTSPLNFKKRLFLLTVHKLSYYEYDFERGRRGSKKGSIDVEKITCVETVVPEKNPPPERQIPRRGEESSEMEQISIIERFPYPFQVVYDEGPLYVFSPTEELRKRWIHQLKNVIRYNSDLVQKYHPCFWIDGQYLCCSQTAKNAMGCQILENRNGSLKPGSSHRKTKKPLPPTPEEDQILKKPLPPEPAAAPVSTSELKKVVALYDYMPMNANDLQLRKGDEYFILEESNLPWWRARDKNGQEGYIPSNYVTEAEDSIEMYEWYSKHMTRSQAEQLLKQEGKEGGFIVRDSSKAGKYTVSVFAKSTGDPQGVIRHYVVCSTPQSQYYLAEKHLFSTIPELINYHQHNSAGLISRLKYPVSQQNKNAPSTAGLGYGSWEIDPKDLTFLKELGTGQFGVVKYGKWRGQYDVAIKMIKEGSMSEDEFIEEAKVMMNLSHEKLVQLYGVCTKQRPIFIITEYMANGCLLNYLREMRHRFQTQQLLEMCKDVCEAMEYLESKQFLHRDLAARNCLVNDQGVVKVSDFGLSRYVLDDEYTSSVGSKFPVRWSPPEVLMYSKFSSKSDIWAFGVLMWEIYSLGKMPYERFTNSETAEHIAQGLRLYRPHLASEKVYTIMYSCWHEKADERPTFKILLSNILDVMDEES

Row | Compound | IC50 [1, 3] | IC50 [2, 4] | IC50 [1, 5] | IC50 [2, 6]
1 | C=CC(=O)N1C[C@@H](Oc2nc(Nc3ncc(C)s3)cc3c2ccn3CC2CC2)C[C@H]1C [Example 98, 1-((2R,4S)-4-((1-(cyclopropylmethyl)-6-((5-methylthiazol-2-yl)amino)-1H-pyrrolo[3,2-c]pyridin-4-yl)oxy)-2-methylpyrrolidin-1-yl)prop-2-en-1-one] | ≤ 20 nM | ≤ 20 nM |  | 
2 | C=CC(=O)N1CC=C(c2nc(Nc3ncc(C)s3)cc3c2ccn3CC2(C(F)(F)F)CC2)CC1 [Example 17, 1-(4-(6-((5-methylthiazol-2-yl)amino)-1-((1-(trifluoromethyl)cyclopropyl)methyl)-1H-pyrrolo[3,2-c]pyridin-4-yl)-3,6-dihydropyridin-1(2H)-yl)prop-2-en-1-one] |  |  | ≤ 20 nM | ≤ 20 nM
3 | C=CC(=O)Nc1c(C)ccc(-c2nc(Nc3ncc(C)s3)cc3c2ccn3C)c1C [Example 56, N-(2,6-dimethyl-3-(1-methyl-6-((5-methylthiazol-2-yl)amino)-1H-pyrrolo[3,2-c]pyridin-4-yl)phenyl)acrylamide] | > 500 nM | ≤ 20 nM | ≤ 20 nM | ≤ 20 nM
4 | C=CC(=O)N1CC[C@H](Oc2nc(Nc3ncc(C)s3)cc3c2ccn3CC2(C(F)(F)F)CC2)C1 (stereo in doubt) [Example 102, (S)-1-(3-((6-((5-methylthiazol-2-yl)amino)-1-((1-(trifluoromethyl)cyclopropyl)methyl)-1H-pyrrolo[3,2-c]pyridin-4-yl)oxy)pyrrolidin-1-yl)prop-2-en-1-one] | ≤ 20 nM | ≤ 20 nM |  | 
5 | C=CC(=O)Nc1cc(-c2nc(Nc3ncc(C)s3)cc3c2ccn3CC2CC2)ccc1C [Example 65, N-(5-(1-(cyclopropylmethyl)-6-((5-methylthiazol-2-yl)amino)-1H-pyrrolo[3,2-c]pyridin-4-yl)-2-methylphenyl)acrylamide] |  |  | 20 to 100 nM | ≤ 20 nM
6 | C=CC(=O)N1CCCC12CCC(Oc1nc(Nc3ncc(C)s3)cc3c1ccn3CC(C)C)C2 (stereo not shown) [Example 201, 1-(7-((1-isobutyl-6-((5-methylthiazol-2-yl)amino)-1H-pyrrolo[3,2-c]pyridin-4-yl)oxy)-1-azaspiro[4.4]nonan-1-yl)prop-2-en-1-one] | > 500 nM | 100 to 500 nM |  | 
7 | C=CC(=O)N1C[C@@H](F)[C@H](Oc2nc(Nc3ncc(C)s3)cc3c2ccn3[C@@H](C)CC)C1 [Example 113, 1-((3R,4R)-3-((1-((S)-sec-butyl)-6-((5-methylthiazol-2-yl)amino)-1H-pyrrolo[3,2-c]pyridin-4-yl)oxy)-4-fluoropyrrolidin-1-yl)prop-2-en-1-one] | ≤ 20 nM | ≤ 20 nM |  | 
8 | C=CC(=O)N1CC=C(c2nc(Nc3ncc(C)s3)cc3c2ccn3CC2CCC(F)(F)CC2)CC1 [Example 11, 1-(4-(1-((4,4-difluorocyclohexyl)methyl)-6-((5-methylthiazol-2-yl)amino)-1H-pyrrolo[3,2-c]pyridin-4-yl)-3,6-dihydropyridin-1(2H)-yl)prop-2-en-1-one] |  |  | ≤ 20 nM | ≤ 20 nM
9 | C=CC(=O)N1C2C=C(c3nc(Nc4ncc(C)s4)cc4c3ccn4C3CC3(F)F)CC1CC2 (stereo not shown) [Example 31, 1-(3-(1-(2,2-difluorocyclopropyl)-6-((5-methylthiazol-2-yl)amino)-1H-pyrrolo[3,2-c]pyridin-4-yl)-8-azabicyclo[3.2.1]oct-2-en-8-yl)prop-2-en-1-one] |  |  | ≤ 20 nM | ≤ 20 nM
10 | C=CC(=O)N1C[C@H](Oc2nc(Nc3ncc(C)s3)cc3c2ccn3CC(C)C)[C@@H](F)C1 [Example 134, 1-((3S,4S)-3-fluoro-4-((1-isobutyl-6-((5-methylthiazol-2-yl)amino)-1H-pyrrolo[3,2-c]pyridin-4-yl)oxy)pyrrolidin-1-yl)prop-2-en-1-one] | > 500 nM | > 500 nM |  | 
11 | C=CC(=O)N1C[C@H](F)[C@H](Oc2nc(Nc3ncc(C)s3)cc3c2ccn3CCOC)C1 [Example 147, 1-((3S,4R)-3-fluoro-4-((1-(2-methoxyethyl)-6-((5-methylthiazol-2-yl)amino)-1H-pyrrolo[3,2-c]pyridin-4-yl)oxy)pyrrolidin-1-yl)prop-2-en-1-one] | ≤ 20 nM | ≤ 20 nM |  | 
12 | C=CC(=O)N1CC(Oc2nc(Nc3ncc(C)s3)cc3c2ccn3C2CCCC2)C1 [Example 142, 1-(3-((1-cyclopentyl-6-((5-methylthiazol-2-yl)amino)-1H-pyrrolo[3,2-c]pyridin-4-yl)oxy)azetidin-1-yl)prop-2-en-1-one] | ≤ 20 nM | ≤ 20 nM |  | 
13 | C=CC(=O)N1CC=C(c2nc(Nc3nc(C)cs3)cc3c2ccn3C(C)C)CC1 [Example 42, 1-(4-(1-isopropyl-6-((4-methylthiazol-2-yl)amino)-1H-pyrrolo[3,2-c]pyridin-4-yl)-3,6-dihydropyridin-1(2H)-yl)prop-2-en-1-one] |  |  | > 500 nM | > 500 nM
14 | C=CC(=O)N1CC[C@H](Oc2nc(Nc3ncc(C)s3)cc3c2ccn3CC2CCOCC2)C1 [Example 133, (S)-1-(3-((6-((5-methylthiazol-2-yl)amino)-1-((tetrahydro-2H-pyran-4-yl)methyl)-1H-pyrrolo[3,2-c]pyridin-4-yl)oxy)pyrrolidin-1-yl)prop-2-en-1-one] | ≤ 20 nM | ≤ 20 nM |  | 
15 | C=CC(=O)N1C2C=C(c3nc(Nc4ncc(C)s4)cc4c3ccn4C3CCCC3)CC1CC2 (stereo not shown) [Example 33, 1-(3-(1-cyclopentyl-6-((5-methylthiazol-2-yl)amino)-1H-pyrrolo[3,2-c]pyridin-4-yl)-8-azabicyclo[3.2.1]oct-2-en-8-yl)prop-2-en-1-one] | ≤ 20 nM | ≤ 20 nM |  | 
16 | C=CC(=O)N1CC[C@H](Oc2nc(Nc3ncc(C)s3)cc3c2ccn3CC(C)(C)O)C1 [Example 140, (S)-1-(3-((1-(2-hydroxy-2-methylpropyl)-6-((5-methylthiazol-2-yl)amino)-1H-pyrrolo[3,2-c]pyridin-4-yl)oxy)pyrrolidin-1-yl)prop-2-en-1-one] | ≤ 20 nM | ≤ 20 nM |  | 
17 | C=CC(=O)N1CC=C(c2nc(Nc3ncc(C)s3)cc3c2ccn3Cc2ccccc2)CC1 [Example 15, 1-(4-(1-benzyl-6-((5-methylthiazol-2-yl)amino)-1H-pyrrolo[3,2-c]pyridin-4-yl)-3,6-dihydropyridin-1(2H)-yl)prop-2-en-1-one] |  |  | ≤ 20 nM | ≤ 20 nM
18 | C=CC(=O)N1C[C@H](F)[C@H](Oc2nc(Nc3ncc(C)s3)cc3c2ccn3CCF)C1 [Example 189, 1-((3S,4R)-3-fluoro-4-((1-(2-fluoroethyl)-6-((5-methylthiazol-2-yl)amino)-1H-pyrrolo[3,2-c]pyridin-4-yl)oxy)pyrrolidin-1-yl)prop-2-en-1-one] | ≤ 20 nM | ≤ 20 nM |  | 
19 | C=CC(=O)N1C[C@H](F)[C@H](Oc2nc(Nc3cccn(C)c3=O)cc3c2ccn3CC(C)C)C1 [Example 199, 3-((4-(((3R,4S)-1-acryloyl-4-fluoropyrrolidin-3-yl)oxy)-1-isobutyl-1H-pyrrolo[3,2-c]pyridin-6-yl)amino)-1-methylpyridin-2(1H)-one] | > 500 nM | > 500 nM |  | 
20 | C=CC(=O)Nc1cc(-c2nc(Nc3ncc(C)s3)cc3c2ccn3C(C)C)c(F)cc1F [Example 60, N-(2,4-difluoro-5-(1-isopropyl-6-((5-methzylthiazol-2-yl)amino)-1H-pyrrolo[3,2-c]pyridin-4-yl)phenyl)acrylamide] | ≤ 20 nM | ≤ 20 nM | ≤ 20 nM | ≤ 20 nM
21 | C=CC(=O)N1C[C@@H](Oc2nc(Nc3ncc(C)s3)cc3c2ccn3C)C[C@@H]1C [Example 185, 1-((2S,4S)-2-methyl-4-((1-methyl-6-((5-methylthiazol-2-yl)amino)-1H-pyrrolo[3,2-c]pyridin-4-yl)oxy)pyrrolidin-1-yl)prop-2-en-1-one] | ≤ 20 nM | ≤ 20 nM |  | 
22 | C=CC(=O)Nc1cccc(-c2nc(Nc3ncc(C)s3)cc3c2ccn3CC2CCOCC2)c1F [Example 73, N-(2-fluoro-3-(6-((5-methylthiazol-2-yl)amino)-1-((tetrahydro-2H-pyran-4-yl)methyl)-1H-pyrrolo[3,2-c]pyridin-4-yl)phenyl)acrylamide] |  |  | ≤ 20 nM | ≤ 20 nM
23 | C=CC(=O)N1CCC[C@H](Oc2nc(Nc3ncc(C)s3)cc3c2ccn3CC2CCCC2)C1 [Example 169, (S)-1-(3-((1-(cyclopentylmethyl)-6-((5-methylthiazol-2-yl)amino)-1H-pyrrolo[3,2-c]pyridin-4-yl)oxy)piperidin-1-yl)prop-2-en-1-one] | 20 to 100 nM | ≤ 20 nM |  | 
24 | C=CC(=O)N1CC=C(c2nc(Nc3ncc(C)s3)cc3c2ccn3CC2CCCCC2)CC1 [Example 9, 1-(4-(1-(cyclohexylmethyl)-6-((5-methylthiazol-2-yl)amino)-1H-pyrrolo[3,2-c]pyridin-4-yl)-3,6-dihydropyridin-1(2H)-yl)prop-2-en-1-one] |  |  | ≤ 20 nM | ≤ 20 nM
